Results as given in patent US9290528B1, “Light-activated compounds” (University of Kentucky Research Foundation, priority 2013, dated 2016).

Legend:
Log P = assay type: physicochemical
A549 cells = assay: Uptake and subcellular localization by Apoptome microscopy; assay type: cell-based, human
Protocol: The emission of 9 and 10 was measured in A549 cells using an Apoptome microscope. The relative rates of uptake of each of the complexes were analyzed as a function of time, and both 9 and 10 were visible inside cells as early as 2 hours after compound addition, consistent with the flow data and the ICP-OES results. Images were taken at 2, 8, 18 and 24 hours, and intracellular levels of both complexes appeared to plateau around 8 hours.
Differences in the intracellular localization of 9 and 10 were evaluated by determining colocalization of luminescence of the compound and fluorescent markers of organelles in A549 cells. Overlap in signals between the compounds, cellular nucleus, mitochondria and lysosome was measured over a 24 hour period.

HL60 cells [1] = assay: Western blot of PARP and caspase 3 cleavage; assay type: cell-based, human
Protocol: Given the different cellular localization properties and time profiles for cell death induced by 9 and 10, the mechanism of cell death was investigated. Indicators of apoptotic cell death (activation of PARP and caspase 3 through proteolysis) were determined in HL60 cells treated with either 9 or 10 (FIGS. 15A and 15B).
The generation of an alternate 55 kDa PARP fragment was determined by immunoblot as a marker for necrosis with 10% (v/v) ethanol used as a control that induces necrosis.

pUC19 plasmid DNA = pUC19 plasmid DNA damage by gel electrophoresis (Example 4); assay type: biochemical
Protocol: Their DNA damaging properties were assessed with pUC19 plasmid DNA using gel electrophoresis. […] Samples were then incubated for 24 hours at room temperature protected from light. Controls were prepared to simulate single and double strand DNA breaks, and the DNA samples resolved on agarose gels. Samples were resolved using 1% agarose gels prepared in tris-acetate (TA) buffer. Each lane was loaded with 0.3 μg of pUC19 and the samples run for 90 minutes at […]. The gels were stained with 500 ng/mL ethidium bromide in TA buffer at room temperature for 40 minutes. […] In contrast, 10 is a more hydrophilic molecule, and the negatively charged sulfonate functional groups were anticipated to cause electrostatic repulsions between the complex and the negatively charged backbone of the DNA. DNA precipitation or smearing was not observed with up to 500 μM of […] (FIG. 12B).

HL60 cells [2] = assay: Cell viability as a function of time; assay type: cell-based, human; settings: irradiated
HL60 cells [3] = assay: Genomic DNA laddering by gel electrophoresis; assay type: cell-based, human; settings: dark / not irradiated
From the text: To further analyze the mechanisms of cell death induced by 9 and 10, the degradation pattern of genomic DNA was investigated. DNA laddering was observed as a result of DNA fragmentation stemming from the execution phase of apoptosis. In contrast, necrotic cell death lacked this characteristic laddering effect, allowing differentiation between these two mechanisms. […] This laddering was absent in the cells treated with ethanol and compounds 9 and 10 in the dark. […] In contrast, given the cytotoxicity of 9 in the dark and the presence of the 55 kDa PARP fragment, it appears that necrotic cell death is one pathway for […]. For compound 10 the absence of DNA laddering may be a result of the lack of cytotoxicity of the negatively charged compound.

HL60 cells [4] = assay: Mitochondrial membrane potential (TMRE); assay type: cell-based, human
From the text: FIGS. 14A to 14D includes charts showing mitochondrial potential and cell viability of HL60 cells as a function of time for (FIG. 14A) 9, dark, (FIG. 14B) 9, irradiated; (FIG. 14C) 10, dark; (FIG. 14D) 10, irradiated. TMRE was used to quantify membrane potential; values are relative to a no-compound control value of 100.
TMRE is a cationic dye that accumulates in active motochondria as a result of the negative membrane potential (Δψm).

Substance: Ru(bathophenanthroline)3 [Compound 9]
- Log P (Log P): 1.8 ± 0.02
- time at which intracellular levels plateau (A549 cells): around 8 hours
- PARP and caspase 3 activation (HL60 cells [1]; absence of light): after 18 and 24 hours and to a lesser degree
- PARP and caspase 3 activation (HL60 cells [1]; irradiated): induced the proteolytic activation of both PARP and caspase 3 within 2 hours of irradiation
- 55 kDa PARP fragment (marker for necrosis) (HL60 cells [1]; protected from light and irradiated): produced this fragment at significant levels
- DNA damage when exposed to light (pUC19 plasmid DNA; 40 J/cm^2 >400 nm light): induced single strand DNA breaks
- concentrations at which precipitation of the complex with the DNA was observed (pUC19 plasmid DNA; light and dark): above 31.3 μM
- time to cell death after irradiation (HL60 cells [2]): ≤ 2 h
- cell viability (HL60 cells [2]; 2 hours): about 0%
- genomic DNA laddering (HL60 cells [3]): absent
- effect on mitochondrial potential (HL60 cells [4]; dark and irradiated): rapid and complete depolarization of mitochondria
- mitochondrial function (HL60 cells [4]; dark, 2 hours post treatment): completely impaired
- mitochondrial function (HL60 cells [4]; within 2 hours of irradiation): about 0%
